According to ChEMBL document CHEMBL5291721, “A preclinical secondary pharmacology resource illuminates target-adverse drug reaction associations of marketed drugs” (Nat Commun, 2023):

What was measured:
D(3) dopamine receptor = D(3) dopamine receptor (Homo sapiens, UniProt P35462)
[1] = target: T1, Alpha-2C adrenergic receptor (Homo sapiens, UniProt P18825); type: functional
T1 sequence (P18825 whole entry): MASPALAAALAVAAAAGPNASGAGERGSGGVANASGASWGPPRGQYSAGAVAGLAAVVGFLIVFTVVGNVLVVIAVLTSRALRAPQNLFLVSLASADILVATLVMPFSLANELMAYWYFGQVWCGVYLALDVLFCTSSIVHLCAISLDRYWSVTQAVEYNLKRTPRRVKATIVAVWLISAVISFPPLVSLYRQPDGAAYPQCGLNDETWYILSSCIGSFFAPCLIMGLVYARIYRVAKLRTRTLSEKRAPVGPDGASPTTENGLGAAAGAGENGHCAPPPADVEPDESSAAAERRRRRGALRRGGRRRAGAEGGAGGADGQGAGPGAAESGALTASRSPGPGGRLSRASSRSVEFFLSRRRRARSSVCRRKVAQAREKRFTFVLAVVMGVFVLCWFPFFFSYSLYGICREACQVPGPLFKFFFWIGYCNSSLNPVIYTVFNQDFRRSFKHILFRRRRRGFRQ

[2] = target: T2, 5-hydroxytryptamine receptor 1A (Homo sapiens, UniProt P08908); type: functional, cell-based
T2 sequence (P08908 whole entry): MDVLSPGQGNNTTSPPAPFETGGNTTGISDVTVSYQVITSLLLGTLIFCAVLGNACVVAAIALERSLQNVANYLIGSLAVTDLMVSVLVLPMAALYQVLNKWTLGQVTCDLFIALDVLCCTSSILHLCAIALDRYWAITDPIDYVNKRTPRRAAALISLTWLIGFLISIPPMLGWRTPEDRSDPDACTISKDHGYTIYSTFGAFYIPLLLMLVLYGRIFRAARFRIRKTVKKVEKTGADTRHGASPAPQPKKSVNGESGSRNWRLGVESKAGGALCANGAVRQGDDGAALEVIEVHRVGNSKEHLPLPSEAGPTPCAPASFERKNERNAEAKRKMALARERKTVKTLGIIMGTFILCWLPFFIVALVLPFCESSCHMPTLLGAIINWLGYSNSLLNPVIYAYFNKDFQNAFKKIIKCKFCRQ

[3] = target: Gamma-aminobutyric acid receptor subunit alpha-1 (Rattus norvegicus, UniProt P62813)
Sequence of Gamma-aminobutyric acid receptor subunit alpha-1 (P62813 whole entry): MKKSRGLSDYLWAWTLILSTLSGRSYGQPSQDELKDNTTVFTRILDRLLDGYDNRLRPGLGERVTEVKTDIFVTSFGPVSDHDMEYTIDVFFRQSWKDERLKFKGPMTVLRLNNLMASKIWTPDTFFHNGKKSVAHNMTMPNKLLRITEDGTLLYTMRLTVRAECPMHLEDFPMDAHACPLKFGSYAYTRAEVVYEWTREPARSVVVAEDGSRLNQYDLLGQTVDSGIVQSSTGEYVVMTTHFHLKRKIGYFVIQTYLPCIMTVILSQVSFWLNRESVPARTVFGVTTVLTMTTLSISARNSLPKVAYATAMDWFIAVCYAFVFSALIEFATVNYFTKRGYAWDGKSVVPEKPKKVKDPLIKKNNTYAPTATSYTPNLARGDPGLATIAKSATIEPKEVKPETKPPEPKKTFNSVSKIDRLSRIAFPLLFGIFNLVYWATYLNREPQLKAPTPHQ

[4] = target: 3',5'-cyclic-AMP phosphodiesterase 4D (Homo sapiens, UniProt Q08499); type: functional
Sequence of 3',5'-cyclic-AMP phosphodiesterase 4D (Q08499 whole entry): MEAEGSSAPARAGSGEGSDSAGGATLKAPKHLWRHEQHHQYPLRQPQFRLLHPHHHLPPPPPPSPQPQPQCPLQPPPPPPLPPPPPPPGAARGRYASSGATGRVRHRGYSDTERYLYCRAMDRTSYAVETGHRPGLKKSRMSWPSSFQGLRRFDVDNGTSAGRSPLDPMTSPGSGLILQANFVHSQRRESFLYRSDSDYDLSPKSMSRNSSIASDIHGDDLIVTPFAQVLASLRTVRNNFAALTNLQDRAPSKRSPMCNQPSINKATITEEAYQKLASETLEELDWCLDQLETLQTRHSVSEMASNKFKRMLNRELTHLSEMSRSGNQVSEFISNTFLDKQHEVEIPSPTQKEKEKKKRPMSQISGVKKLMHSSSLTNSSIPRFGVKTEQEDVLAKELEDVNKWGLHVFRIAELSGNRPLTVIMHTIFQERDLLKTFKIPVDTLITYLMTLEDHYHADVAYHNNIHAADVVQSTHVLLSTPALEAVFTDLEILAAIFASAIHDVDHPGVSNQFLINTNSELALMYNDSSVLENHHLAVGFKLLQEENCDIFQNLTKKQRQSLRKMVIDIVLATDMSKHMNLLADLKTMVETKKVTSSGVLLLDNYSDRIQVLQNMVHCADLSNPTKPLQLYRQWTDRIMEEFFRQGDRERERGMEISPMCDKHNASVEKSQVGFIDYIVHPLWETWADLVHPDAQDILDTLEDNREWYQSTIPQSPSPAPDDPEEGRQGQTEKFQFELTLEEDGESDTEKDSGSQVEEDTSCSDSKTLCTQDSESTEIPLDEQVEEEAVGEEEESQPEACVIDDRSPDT

[5] = target: 5-hydroxytryptamine receptor 2B (Homo sapiens, UniProt P41595); type: functional, cell-based
Sequence of 5-hydroxytryptamine receptor 2B (P41595 whole entry): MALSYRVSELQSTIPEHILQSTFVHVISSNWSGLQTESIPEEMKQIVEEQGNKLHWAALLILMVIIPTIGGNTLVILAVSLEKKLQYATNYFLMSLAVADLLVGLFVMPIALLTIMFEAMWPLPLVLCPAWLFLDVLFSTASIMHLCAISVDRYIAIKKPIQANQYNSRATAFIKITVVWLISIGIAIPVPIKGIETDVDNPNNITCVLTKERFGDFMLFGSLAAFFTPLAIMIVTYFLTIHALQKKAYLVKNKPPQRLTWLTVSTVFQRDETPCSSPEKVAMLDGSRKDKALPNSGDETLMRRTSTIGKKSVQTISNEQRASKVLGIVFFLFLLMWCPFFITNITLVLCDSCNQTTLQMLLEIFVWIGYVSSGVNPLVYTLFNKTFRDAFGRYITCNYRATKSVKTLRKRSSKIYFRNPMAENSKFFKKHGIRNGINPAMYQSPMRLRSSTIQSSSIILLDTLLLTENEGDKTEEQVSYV

[6] = target: Voltage-gated inwardly rectifying potassium channel KCNH2 (Homo sapiens, UniProt Q12809); type: functional; settings: read-out: AC50
Sequence of Voltage-gated inwardly rectifying potassium channel KCNH2 (Q12809 whole entry): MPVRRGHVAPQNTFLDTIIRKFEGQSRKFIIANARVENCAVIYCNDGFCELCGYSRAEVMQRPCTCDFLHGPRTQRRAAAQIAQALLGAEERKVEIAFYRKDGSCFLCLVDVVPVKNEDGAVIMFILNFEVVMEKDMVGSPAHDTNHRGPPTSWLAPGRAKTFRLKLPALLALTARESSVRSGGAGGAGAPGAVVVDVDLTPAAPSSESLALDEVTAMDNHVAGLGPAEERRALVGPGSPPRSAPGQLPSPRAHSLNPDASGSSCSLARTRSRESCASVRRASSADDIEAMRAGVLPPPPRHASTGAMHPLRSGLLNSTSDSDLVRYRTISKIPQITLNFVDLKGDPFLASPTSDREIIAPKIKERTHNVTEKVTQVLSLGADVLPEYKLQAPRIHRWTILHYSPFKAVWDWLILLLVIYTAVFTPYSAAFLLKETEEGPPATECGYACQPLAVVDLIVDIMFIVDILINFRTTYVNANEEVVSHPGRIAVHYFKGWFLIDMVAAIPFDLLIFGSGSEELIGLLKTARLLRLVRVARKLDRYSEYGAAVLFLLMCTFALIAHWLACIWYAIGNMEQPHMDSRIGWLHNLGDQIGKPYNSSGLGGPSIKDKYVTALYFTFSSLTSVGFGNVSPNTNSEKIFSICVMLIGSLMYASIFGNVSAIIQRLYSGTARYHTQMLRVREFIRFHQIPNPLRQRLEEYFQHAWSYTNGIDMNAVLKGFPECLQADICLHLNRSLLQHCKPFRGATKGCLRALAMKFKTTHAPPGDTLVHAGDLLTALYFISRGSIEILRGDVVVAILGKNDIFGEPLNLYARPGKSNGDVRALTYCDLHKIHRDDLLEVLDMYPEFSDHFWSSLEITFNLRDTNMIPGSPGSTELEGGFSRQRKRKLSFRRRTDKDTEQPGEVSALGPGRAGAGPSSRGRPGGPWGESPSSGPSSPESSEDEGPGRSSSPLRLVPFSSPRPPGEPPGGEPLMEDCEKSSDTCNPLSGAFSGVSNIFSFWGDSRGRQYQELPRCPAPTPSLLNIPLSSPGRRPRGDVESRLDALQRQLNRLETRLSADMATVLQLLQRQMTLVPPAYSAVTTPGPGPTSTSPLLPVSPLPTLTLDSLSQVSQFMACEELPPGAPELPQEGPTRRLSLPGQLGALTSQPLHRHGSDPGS

Estrogen receptor = target: T3, Estrogen receptor (Homo sapiens, UniProt P03372)
T3 sequence (P03372 whole entry): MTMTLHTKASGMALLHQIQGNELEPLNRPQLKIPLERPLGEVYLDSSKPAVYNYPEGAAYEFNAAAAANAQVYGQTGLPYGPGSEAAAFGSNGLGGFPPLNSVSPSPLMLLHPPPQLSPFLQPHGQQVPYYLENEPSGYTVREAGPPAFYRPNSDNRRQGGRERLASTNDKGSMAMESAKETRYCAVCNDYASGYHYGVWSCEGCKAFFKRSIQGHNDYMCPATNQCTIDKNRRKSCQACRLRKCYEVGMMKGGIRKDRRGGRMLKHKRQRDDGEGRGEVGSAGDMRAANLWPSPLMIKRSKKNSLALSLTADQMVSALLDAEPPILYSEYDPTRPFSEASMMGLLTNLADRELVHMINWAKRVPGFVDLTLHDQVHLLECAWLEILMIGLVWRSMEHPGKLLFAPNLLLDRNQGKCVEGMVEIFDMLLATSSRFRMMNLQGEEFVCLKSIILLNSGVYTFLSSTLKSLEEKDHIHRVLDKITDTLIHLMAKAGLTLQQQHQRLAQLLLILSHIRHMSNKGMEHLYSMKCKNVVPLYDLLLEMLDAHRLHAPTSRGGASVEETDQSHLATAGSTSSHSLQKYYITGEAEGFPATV

Thromboxane A2 receptor = target: T4, Thromboxane A2 receptor (Homo sapiens, UniProt P21731)
T4 sequence (P21731 whole entry): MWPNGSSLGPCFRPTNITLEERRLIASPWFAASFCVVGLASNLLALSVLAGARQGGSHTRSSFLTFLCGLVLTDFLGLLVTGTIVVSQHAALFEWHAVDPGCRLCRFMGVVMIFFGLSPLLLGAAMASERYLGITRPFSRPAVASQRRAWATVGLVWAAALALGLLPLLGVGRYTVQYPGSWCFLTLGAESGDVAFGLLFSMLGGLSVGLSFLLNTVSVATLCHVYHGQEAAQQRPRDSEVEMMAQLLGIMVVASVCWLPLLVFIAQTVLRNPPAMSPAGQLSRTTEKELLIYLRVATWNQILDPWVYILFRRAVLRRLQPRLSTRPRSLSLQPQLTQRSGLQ

[7] = target: T5, Alpha-1A adrenergic receptor (Homo sapiens, UniProt P35348); type: functional, cell-based
T5 sequence (P35348 whole entry): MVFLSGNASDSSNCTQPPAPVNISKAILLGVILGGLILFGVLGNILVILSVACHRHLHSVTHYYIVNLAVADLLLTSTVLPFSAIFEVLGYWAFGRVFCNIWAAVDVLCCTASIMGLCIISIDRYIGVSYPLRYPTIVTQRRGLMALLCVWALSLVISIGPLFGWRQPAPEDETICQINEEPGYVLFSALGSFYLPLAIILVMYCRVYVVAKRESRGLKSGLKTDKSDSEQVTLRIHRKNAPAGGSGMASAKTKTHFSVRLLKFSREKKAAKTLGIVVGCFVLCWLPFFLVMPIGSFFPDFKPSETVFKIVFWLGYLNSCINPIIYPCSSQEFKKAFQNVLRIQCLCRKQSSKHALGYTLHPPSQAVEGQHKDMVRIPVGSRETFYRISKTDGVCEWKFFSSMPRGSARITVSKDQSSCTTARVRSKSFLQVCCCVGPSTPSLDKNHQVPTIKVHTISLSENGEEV
Also: assay procedure not described here.

Sequence of D(3) dopamine receptor (P35462 whole entry): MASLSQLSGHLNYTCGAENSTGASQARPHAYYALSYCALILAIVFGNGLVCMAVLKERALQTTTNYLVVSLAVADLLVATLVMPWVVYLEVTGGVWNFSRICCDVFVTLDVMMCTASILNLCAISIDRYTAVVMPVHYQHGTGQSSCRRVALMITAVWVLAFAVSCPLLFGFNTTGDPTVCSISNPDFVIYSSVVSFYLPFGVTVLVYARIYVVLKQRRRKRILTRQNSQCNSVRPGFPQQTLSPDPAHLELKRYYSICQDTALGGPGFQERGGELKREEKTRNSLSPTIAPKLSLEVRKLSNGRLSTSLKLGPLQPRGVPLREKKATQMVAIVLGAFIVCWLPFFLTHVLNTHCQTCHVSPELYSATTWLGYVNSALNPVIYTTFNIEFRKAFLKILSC

Compound	AC50 (D(3) dopamine receptor) [µM]	AC50 [1] [µM]	AC50 [2] [µM]	AC50 [3] [µM]	AC50 [4] [µM]	AC50 [5] [µM]	AC50 (Estrogen receptor) [µM]	AC50 (Thromboxane A2 receptor) [µM]	AC50 [7] [µM]	AC50 [6] [µM]
COC(=O)[C@H]1[C@H]2C[C@@H]3c4[nH]c5cc(OC)ccc5c4CCN3C[C@H]2C[C@@H](OC(=O)/C=C/c2cc(OC)c(OC)c(OC)c2)[C@@H]1OC [RESCINNAMINE]	> 30	> 10	> 10	> 10	> 30	> 10	> 10	> 10	–	0.988
CC(=O)OCC(=O)[C@@]12N=C(C)O[C@@H]1C[C@H]1[C@@H]3CCC4=CC(=O)C=C[C@]4(C)[C@H]3[C@@H](O)C[C@@]12C [DEFLAZACORT]	> 30	> 30	–	> 30	> 30	> 30	> 30	> 30	> 30	> 30
CC(C)(C)C(=O)Oc1ccc(S(=O)(=O)Nc2ccccc2C(=O)NCC(=O)O)cc1	> 30	> 30	> 30	> 30	> 30	> 30	> 30	> 30	–	> 30
CN1CCC(=C2c3ccccc3CCc3sccc32)CC1 [PIZOTYLINE]	4.3	2.1	–	> 10	> 10	0.0279	> 30	> 30	> 30	2.31
CC=CC(=O)N(CC)c1ccccc1C	> 30	> 10	–	> 10	> 30	> 10	> 10	> 10	> 30	> 30
COC(=O)C1=C(C)NC(C)=C(C(=O)OC(C)(C)CN(C)CCC(c2ccccc2)c2ccccc2)C1c1cccc([N+](=O)[O-])c1 (configuration not stated) [LERCANIDIPINE]	> 30	> 30	> 30	> 30	> 30	> 30	> 30	> 30	–	> 30
CCOC(=O)OC(C)OC1=C(C(=O)Nc2ccccn2)N(C)S(=O)(=O)c2ccccc21 (configuration not stated) [AMPIROXICAM]	> 30	> 30	–	> 30	> 30	10	> 30	> 30	> 30	> 30
CCOC(=O)[N-]c1cn(N2CCOCC2)n[o+]1 [MOLSIDOMINE]	> 30	> 30	–	> 30	> 30	> 30	> 30	> 30	> 30	> 30
CC[C@@H]1C(=O)OC[C@@H]1Cc1cncn1C [PILOCARPINE]	> 30	> 10	–	> 10	> 30	> 10	> 30	> 30	> 30	> 30
OC(CNCC(O)C1CCc2cc(F)ccc2O1)C1CCc2cc(F)ccc2O1 (configuration not stated) [NEBIVOLOL]	2	2	–	> 30	> 30	8.8	> 30	> 30	> 30	0.83
CC(=O)O[C@H]1C[C@@H]2CC[C@@H]3[C@H](CC[C@@]4(C)[C@H]3C[C@H]([N+]3(C)CCCCC3)[C@@H]4OC(C)=O)[C@@]2(C)C[C@@H]1N1CCCCC1 [VECURONIUM]	> 30	> 30	–	> 30	> 30	> 30	> 30	> 30	> 30	10.4
CC(C)=CCC/C(C)=C/C=C/C(C)=C/C=C/C(C)=C/C=C/C=C(C)/C=C/C=C(C)/C=C/C=C(\C)CCC=C(C)C [LYCOPENE]	> 30	> 30	–	> 30	> 30	> 30	> 10	> 30	> 30	> 30

Further lines, with some results ahead:

AC50 (D(3) dopamine receptor) [µM]	AC50 [1] [µM]	AC50 [2] [µM]	AC50 [3] [µM]	AC50 [4] [µM]	AC50 [5] [µM]	AC50 (Estrogen receptor) [µM]	AC50 (Thromboxane A2 receptor) [µM]	AC50 [7] [µM]	Compound	AC50 [6] [µM]
> 30	> 30	–	> 30	> 30	> 30	> 30	> 30	> 30	O=C(O)C1=C(CSc2nnnn2CS(=O)(=O)O)CS[C@@H]2[C@H](NC(=O)[C@H](O)c3ccccc3)C(=O)N12 [CEFONICID]	> 30
> 30	> 10	> 10	> 10	> 30	> 10	> 10	> 10	–	O=C(O)[C@H](CC(=O)N1C[C@H]2CCCC[C@H]2C1)Cc1ccccc1 [MITIGLINIDE]	> 30
> 30	> 30	–	> 30	> 30	> 30	> 30	> 30	> 30	CC(C(=O)O)c1ccc(N2Cc3ccccc3C2=O)cc1 (configuration not stated) [INDOPROFEN]	> 30
> 30	> 10	> 10	> 10	> 10	> 10	> 10	> 10	–	C[C@H](CSC(=O)c1ccccc1)C(=O)N1C[C@@H](Sc2ccccc2)C[C@H]1C(=O)O [ZOFENOPRIL]	> 30
16	27	–	> 30	7.1	> 30	> 30	> 30	4.5	COC(=O)C1=C(C)NC(C)=C(C(=O)OC2CCCN(Cc3ccccc3)C2)C1c1cccc([N+](=O)[O-])c1 (configuration not stated) [BENIDIPINE]	2.01
> 30	> 30	–	> 30	> 30	1.1	> 30	> 30	> 30	CCCCCCOc1ccccc1C(N)=O [EXALAMIDE]	> 30
